# Source: patent publication US8034806B2, “Bicyclic mGluR5 positive allosteric modulators and methods of making and using same” (Vanderbilt University, priority 2007, dated 2011)
# Target: T1, rat mGluR5 (Rattus norvegicus, UniProt P31424)
# T1 construct: expressed in transfected cells; host or cells: HEK (human embryonic kidney) cells
# Experiment: Potentiation of glutamate response, calcium fluorescence (FDSS) in HEK cells transfected with rat mGluR5
# Assay type: cell-based
# Conditions: for EC50: HEK cells transfected with rat mGluR5, EC20 concentration of glutamate, read-out: mGluR5 Potentiator EC50; for mGluR5 Potentiator Max: maximum extent of potentiation, normalized to the maximal response to agonist, in % (unit assumed)
# Experimental: Human embryonic kidney (HEK) cells transfected with rat mGluR5 were plated in clear bottom assay plates for assay in a Functional Drug Screening System (FDSS). The cells were loaded with a […] fluorescent dye (e.g., Fluo-4), and the plates were washed and placed in the FDSS instrument. After establishment of a fluorescence baseline for twelve seconds, the compounds of the present invention were added to the cells, and the response in cells was measured. Five minutes later, an mGluR5 agonist (e.g., glutamate, 3,5-dihydroxyphenylglycine, or quisqualate) was added to the cells, and the response of the cells was measured. Potentiation of the agonist response of mGluR5 by the compounds in the present invention was observed as an increase in response to non-maximal concentrations of agonist (here, glutamate) in the presence of compound compared to the response to agonist in the absence of compound.
# The above described assay operated in two modes. In the first mode, a range of concentrations of the present compounds were added to cells, followed by a single fixed concentration of agonist. If a compound acted as a potentiator, an EC50 value for potentiation and a maximum extent of potentiation by the compound at this concentration of agonist was determined by non-linear curve fitting. In the second mode, several fixed concentrations of the present compounds were added to various wells on a plate, followed by a range of concentrations of agonist for each concentration of present compound; the EC50 values for the agonist at each concentration of compound were determined by non-linear curve fitting. A decrease in the EC50 value of the agonist with increasing concentrations of the present compounds (a leftward shift of the agonist concentration-response curve) is an indication of the degree of mGluR5 potentiation at a given concentration of the present compound. An increase in the EC50 value of the agonist with increasing concentrations of the present compounds (a rightward shift of the agonist concentration-response curve) is an indication of the degree of mGluR5 antagonism at a given concentration of the present compound. The second mode also indicates whether the present compounds also affect the maximum response to mGluR5 to agonists.
# Human embryonic kidney (HEK) cells transfected with rat mGluR5 were plated in clear-bottomed, poly-D-lysine-coated assay plates in glutamate-glutamine-free medium growth and incubated overnight at 37° C. in 5% CO2. The following day, cells were loaded with 2 μM calcium indicator dye, fluo-4 AM, for 1 h at 37° C. Dye was removed and replaced with assay buffer containing 1× Hanks balanced salt solution (Invitrogen, Carlsbad, Calif.), 20 mM HEPES, and 2.5 mM probenecid, pH 7.4. Cell plates were then loaded into the Functional Drug Screening System 6000 (FDSS 6000, Hamamatsu, Japan). After establishment of a fluorescence baseline for twelve seconds, the compounds of the present invention were added to the cells, and the response in cells was measured. Five minutes later, an mGluR5 agonist (e.g., glutamate, 3,5-dihydroxyphenylglycine, or quisqualate) was added to the cells, and the response of the cells was measured during a 1 minute incubation with agonists. Typically, the effect of test compounds of the present invention was on an EC20 concentration of glutamate was measured. All test compounds were dissolved and diluted in 100% DMSO and then serially diluted into assay buffer for a 2.5× stock in 0.25% DMSO; stock compounds were then added to the assay for a final DMSO concentration of 0.1%. Calcium fluorescence measures were recorded as fold over basal fluorescence; raw data was then normalized to the maximal response to agonist. Potentiation of the agonist response of mGluR5 by the compounds in the present invention was observed as an increase in response to non-maximal concentrations of agonist (here, glutamate) in the presence of compound compared to the response to agonist in the absence of compound. […]
# T1 sequence (P31424 21-1203): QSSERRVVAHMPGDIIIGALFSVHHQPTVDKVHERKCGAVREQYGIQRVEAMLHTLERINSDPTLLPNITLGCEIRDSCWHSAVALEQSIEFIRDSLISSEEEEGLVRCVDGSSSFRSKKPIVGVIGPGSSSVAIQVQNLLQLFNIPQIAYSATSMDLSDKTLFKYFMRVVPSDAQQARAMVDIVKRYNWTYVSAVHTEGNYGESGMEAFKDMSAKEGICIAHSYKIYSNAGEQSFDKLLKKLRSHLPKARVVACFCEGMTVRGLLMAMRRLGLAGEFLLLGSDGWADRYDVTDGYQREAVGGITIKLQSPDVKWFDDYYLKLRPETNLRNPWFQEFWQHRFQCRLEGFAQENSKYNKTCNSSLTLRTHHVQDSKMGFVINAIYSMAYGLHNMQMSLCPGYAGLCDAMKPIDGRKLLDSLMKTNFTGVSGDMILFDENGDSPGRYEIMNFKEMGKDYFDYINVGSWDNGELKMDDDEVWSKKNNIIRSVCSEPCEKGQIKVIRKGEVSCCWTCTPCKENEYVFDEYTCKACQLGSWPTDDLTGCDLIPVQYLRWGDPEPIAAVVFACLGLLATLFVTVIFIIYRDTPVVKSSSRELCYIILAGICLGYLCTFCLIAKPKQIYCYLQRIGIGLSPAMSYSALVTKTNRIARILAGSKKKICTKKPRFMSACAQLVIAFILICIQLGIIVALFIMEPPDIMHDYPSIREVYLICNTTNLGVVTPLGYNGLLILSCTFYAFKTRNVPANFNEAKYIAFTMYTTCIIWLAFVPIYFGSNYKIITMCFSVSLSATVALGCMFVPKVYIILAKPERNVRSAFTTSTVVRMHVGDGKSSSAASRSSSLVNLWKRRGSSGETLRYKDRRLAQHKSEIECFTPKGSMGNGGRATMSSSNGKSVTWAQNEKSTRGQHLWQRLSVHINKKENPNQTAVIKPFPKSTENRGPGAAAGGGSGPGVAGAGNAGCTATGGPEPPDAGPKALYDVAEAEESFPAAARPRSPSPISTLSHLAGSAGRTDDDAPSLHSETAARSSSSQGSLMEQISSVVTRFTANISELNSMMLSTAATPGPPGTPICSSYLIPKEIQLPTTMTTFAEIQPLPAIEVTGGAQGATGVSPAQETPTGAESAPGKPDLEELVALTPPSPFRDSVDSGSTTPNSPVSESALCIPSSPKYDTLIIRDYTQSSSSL
EC50 [nM],mGluR5 Potentiator Max,Structure (SMILES)
25.4,53.4,CN1CCc2cc(C#Cc3ccccc3)ccc2C1=O [VU000068]
16.2,96.5,CCCN1CCc2cc(C#Cc3ccccc3)ccc2C1=O [VU000069]
96,96.7,CCCCN1CCc2cc(C#Cc3ccccc3)ccc2C1=O [VU000070]
546,89.9,O=C1c2ccc(C#Cc3ccccc3)cc2CCN1Cc1ccccc1 [VU000071]
77.3,88.4,O=C(CN1CCc2cc(C#Cc3ccccc3)ccc2C1=O)OCc1ccccc1 [VU000072]
87.7,85.4,CCOC(=O)C(CC)N1CCc2cc(C#Cc3ccccc3)ccc2C1=O (stereo not shown) [VU000073]
17.5,69.4,O=C1c2ccc(C#Cc3ccccc3)cc2CCN1CC1CC1 [VU000098]
26.7,90.7,O=C1c2ccc(C#Cc3ccccc3)cc2CCN1CC1CCC1 [VU000099]
4040,76.3,O=C1c2ccc(C#Cc3ccccc3)cc2CCN1CCN1CCC1 [VU000100]
3570,84,O=C1c2ccc(C#Cc3ccccc3)cc2CCN1CCN1CCOCC1 [VU000101]
4040,45.7,O=C1c2ccc(C#Cc3ccccc3)cc2CCN1CCN1CCC(O)CC1 [VU000102]
612,53.4,Cc1ccccc1C#Cc1ccc2c(c1)CCNC2=O [VU000105]
172,75.7,Cc1cccc(C#Cc2ccc3c(c2)CCNC3=O)c1 [VU000106]
259,81,O=C1NCCc2cc(C#Cc3ccc(F)cc3)ccc21 [VU000107]
145,80.4,O=C1NCCc2cc(C#Cc3ccccc3F)ccc21 [VU000108]
–,28.2,COc1ccc(C#Cc2ccc3c(c2)CCNC3=O)cc1 [VU000109]
3390,58.1,COc1cccc(C#Cc2ccc3c(c2)CCNC3=O)c1 [VU000110]
4890,53.2,O=C1NCCc2cc(C#Cc3ccccc3Cl)ccc21 [VU000111]

EC50 [nM],mGluR5 Potentiator Max,Structure (SMILES)
3670,49.7,Cc1cc(C#Cc2ccc3c(c2)CCNC3=O)ccc1F [VU000112]
–,28.6,O=C1NCCc2cc(C#Cc3ccc(Cl)cc3)ccc21 [VU000113]
470,67.9,O=C1NCCc2cc(C#Cc3cccc(Cl)c3)ccc21 [VU000114]
853,58.7,O=C1NCCc2cc(C#Cc3ccc(F)cc3F)ccc21 [VU000115]
3000,35.6,O=C1NCCc2cc(C#Cc3cc(F)cc(F)c3)ccc21 [VU000116]
243,58,O=C1NCCc2cc(C#Cc3ccncc3)ccc21 [VU000117]
–,28.9,CN(C)c1ccc(C#Cc2ccc3c(c2)CCNC3=O)cc1 [VU000118]
–,29.7,COc1ccc(C#Cc2ccc3c(c2)CCNC3=O)c(C)c1 [VU000119]
–,33.5,O=C1NCCc2cc(C#Cc3cccc(C(F)(F)F)c3)ccc21 [VU000120]
–,34.8,O=C1NCCc2cc(C#Cc3ccccc3C(F)(F)F)ccc21 [VU000121]
953,53.7,O=C(CN1CCc2cc(C#Cc3ccccc3)ccc2C1=O)NCC1CC1 [VU000124]
3080,52.6,O=C(CN1CCc2cc(C#Cc3ccccc3)ccc2C1=O)NC1CC1 [VU000125]
1.66,35.4,CN(C)CCNC(=O)CN1CCc2cc(C#Cc3ccccc3)ccc2C1=O [VU000126]
3060,52.3,COCCNC(=O)CN1CCc2cc(C#Cc3ccccc3)ccc2C1=O [VU000127]
–,37.6,O=C(CN1CCc2cc(C#Cc3ccccc3)ccc2C1=O)N1CCC(O)CC1 [VU000128]
–,30,O=C(CN1CCc2cc(C#Cc3ccccc3)ccc2C1=O)NCCN1CCCCC1 [VU000129]
2350,55.4,O=C(CN1CCc2cc(C#Cc3ccccc3)ccc2C1=O)N1CCOCC1 [VU000130]
7200,35.4,CN1CCN(C(=O)CN2CCc3cc(C#Cc4ccccc4)ccc3C2=O)CC1 [VU000131]
